Key:
5xFAD transgenic mice = assay: Morris Water Maze test in 5xFAD transgenic mice; assay type: in vivo; settings: 5xFAD mice; for Latency to platform: 15 mg/kg intraperitoneal
Text: (§1) As part of the in vivo testing of the biological activity of the leader compound, a transgenic mouse model with Alzheimer’s disease 5xFAD at the age of 13 months was used. This line expresses two human genes: APP (amyloid peptide precursor protein gene) with three types of mutations (Swedish (K670N, M671L), Florida (I716V) and London (V717I)), as well as the presenilin 1 gene with mutations (M146L and L286V) characteristic of this disease. Clinically healthy wildtype single-litter mice C57Bl6/j (n = 8) were used as a control group. Transgenic 5xFAD mice were randomly divided into two groups: (1) animals receiving intraperitoneal injections of hydroxamic acid 35a at a dose of 15 mg/kg (10% DMSO + NaCl) for three weeks—the 5xFAD + 35a group (n = 8) and (2) mice receiving an equivalent volume of solvent—the group 5xFAD (n = 8). All animals were kept in standard vivarium conditions at a temperature of 22 ± 1 °C and a humidity of 55% indoors with a 12-h light–dark cycle. The animals had no restrictions in the consumption of water and food. The study of the neurobehavioral profile was started on the 15th day of the experiment.
The Morris Water Maze test was performed for five consecutive days to assess the formation of spatial learning and memory dependent on the hippocampus.
The installation consisted of a pool (Open Science, Moscow, Russia) with a diameter of 150 cm, filled to a depth of 40 cm with water (22 ± 1 °C). The lighting conditions were as follows: the dark side of the pool—50 lux; the light side—75 lux. […]
Testing was carried out according to a standard protocol, where for the first four days mice were placed in a pool with a platform hidden under water (1.5 cm below the water surface) in one of the quadrants of the pool. […] To do this, the animals were placed in the pool for 90 s and a number of indicators of the neurobehavioral profile were recorded.
All experimental attempts in the Morris water maze were recorded on a camera capturing video images from above the pool, which were processed using EthoVision software.

[1] = system: 5xFAD transgenic mice brain mitochondria; assay: Mitochondrial oxygen consumption rate of brain p2 fraction (Seahorse); assay type: in vivo; settings: p2 fraction of 5xFAD mice treated for three weeks, vs 5xFAD
Text: as §1, with “All animals were kept in standard vivarium conditions at a temperature of 22 ± 1 °C and a humidity of 55% indoors with a 12-h light–dark cycle. The animals had no restrictions in the consumption of water and food. The study of the neurobehavioral profile was started on the 15th day of the experiment.” left out
The analysis of the work of the complexes of the electron transport chain of mitochondria was carried out on the mitochondrial p2 fraction obtained from brain samples of animals of experimental groups. Mitochondrial respiration was determined by the rate of oxygen consumption by organelles using the Seahorse XFe96 cell metabolism analyzer (Seahorse Bioscience, North Billerica, MA, USA), in full compliance with the protocol described in [169].

[2] = molecular target: T1, β-amyloid peptide 1-42 (Aβ1-42) (Homo sapiens, UniProt P05067); assay: Thioflavin T fluorescent analysis of Aβ1-42 aggregation; assay type: biochemical; settings: 48 h, compounds 100 µM, Thioflavin T 10 µM, 48 h registration; read-out: prevention of the aggregation of Aβ1-42
T1 construct: the pathological form of β-amyloid peptide 1-42 (Sigma Aldrich); purchased Sigma Aldrich
Text: The aggregation process of β-amyloid peptide 1-42 (Aβ1-42), caused by hydrophobic interactions of peptide monomers and, as a consequence, the formation of the most toxic polymorphic structure-oligomeric fragments of Aβ, was detected using the fluorescent dye Thioflavin T (Figure 4a). This method is the most widely used for selective staining and the identification of amyloid aggregates, which is confirmed by a large number of works. Fluorescence analysis using Thioflavin T made it possible to monitor the aggregation process of the pathological form of β-amyloid peptide 1-42 (Sigma Aldrich, St. Louis, MI, USA). The experimental protocol was carried out similarly to that described in [58] with some modifications. The registration of changes in the fluorescence of thioflavin T (10 µM, Sigma Aldrich, St. Louis, MI, USA) was performed on a multifunctional tablet analyzer Cytation™3 (BioTek Instruments, Inc., Winooski, VT, USA) at λex = 450 nm, λem = 480 nm. The fluorescence intensity of the solution without Aβ1-42 was subtracted from the fluorescence values of solutions containing protein, due to the need to subtract the background fluorescence.

[3] = system: 5xFAD transgenic mice brain; assay: MDA level in brain samples (TBA test); assay type: in vivo; settings: 21-day administration, 15 mg/kg; p = 0.001 vs 5xFAD
Text: As part of the in vivo testing of the biological activity of the leader compound, a transgenic mouse model with Alzheimer’s disease 5xFAD at the age of 13 months was used. This line expresses two human genes: APP (amyloid peptide precursor protein gene) with three types of mutations (Swedish (K670N, M671L), Florida (I716V) and London (V717I)), as well as the presenilin 1 gene with mutations (M146L and L286V) characteristic of this disease. Clinically healthy wildtype single-litter mice C57Bl6/j (n = 8) were used as a control group. […]
To determine the level of malondialdehyde in the brain of animals, the samples were homogenized in a buffer solution and subjected to a centrifugation procedure at 12,000 rpm for 10 min at 4 °C, after which the infusion fluid was collected for subsequent analysis. Quantitative determination of the protein was carried out as described earlier.
The content of malondialdehyde was determined using a modified TBA test. […] The optical density of the selected suprasetting fluid was measured using a multifunctional Cytation™3 flatbed analyzer (BioTek Instruments, Inc., Winooski, VT, USA) at λ = 540 nm.

T1 sequence (P05067 672-713 limits assumed): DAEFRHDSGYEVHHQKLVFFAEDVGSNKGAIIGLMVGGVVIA

inhibition at 100 µM [2]: 73.9%
Compound: C=C(C)[C@@H]1CC=C(CNC(=O)/C=C/c2ccc(C(=O)NO)cc2)CC1 [Compound 35a, (S,E)-N-hydroxy-4-(3-oxo-3-(((4-(prop-1-en-2-yl)cyclohex-1-en-1-yl)methyl)amino)prop-1-en-1-yl)benzamide]
Latency to platform (5xFAD transgenic mice; first day of training): 55.70 ± 2.10 s
Latency to platform (5xFAD transgenic mice; fourth day of training, p = 0.039 vs day 1): 40.93 ± 5.47 s
number of entrances to the target quadrant, Probe trial (5xFAD transgenic mice; 15 mg/kg, fifth day, p = 0.203 vs C57Bl6/j): same number of entrances to the target quadrant of the maze was found with the control group
activity of complex IV (oxygen consumption rate), increase ([1]; p < 0.0001): 177.57%
activity of complex II (oxygen consumption rate), increase ([1]; p = 0.0025): 57.30%
MDA level in brain (increase in 5xFAD mice) [3]: reversed
